Source: patent US8389509B2, “Substituted pyrazole compounds” (Bristol-Myers Squibb Company, priority 2009, dated 2013)
pEC50, pIC50: −log10 of the molar value.

Key:
[1] = target: T1, S1P1 (Homo sapiens, UniProt P21453); assay: S1P1 Binding Assay (33P-S1P competition, CHO membranes); settings: membranes of CHO cells expressing human S1P1, 33P-S1P ligand; read-out: S1P1 B IC50
T1 construct: expressed in transfected cells; host or cells: CHO cells
Experimental: Membranes were prepared from CHO cells expressing human S1P1. Cells were dissociated in buffer containing 20 mM HEPES, pH 7.5, 50 mM NaCl, 2 mM EDTA and Protease Inhibitor cocktail (Roche), and disrupted on ice using the Polytron homogenizer. The homogenate was centrifuged at 20,000 rpm (48,000 g) and the supernatant was discarded. The membrane pellets were resuspended in buffer containing 50 mM HEPES, pH 7.5, 100 mM NaCl, 1 mM MgCl2, 2 mM EDTA and stored in aliquots at −80° C. after protein concentration determination.
Membranes (2 μg/well) and 0.03 nM final concentration of ^33P-S1P ligand (1 mCi/ml, American Radiolabeled Chemicals) were added to the compound plates. Binding was performed for 60 min at room temperature, terminated by collecting the membranes onto GF/B filter plates, and radioactivity was measured by TOPCOUNT®. The competition data of the test compounds over a range of concentrations was plotted as percentage inhibition of radioligand specific binding. The IC50 is defined as the concentration of competing ligand needed to reduce specific binding by 50%.
Compounds of the present invention and Comparative Compound A were tested in the S1P1 binding assay described hereinabove and the results rounded to two digits, shown in Table A were obtained. In some instances, the value is an average of multiple experiments where N is the number of experiments conducted that provided satisfactory dose response curves. When more than one batch of an example was tested, the value presented is from the batch which allowed a comparison of GTPγS S1P1 and GTPγS S1P3 in Method A (Data shown in Table B). Data was not averaged across different batches of an example compound.

[2] = target: T1, S1P1; assay: Method A: Receptor [35S] GTPγS Binding Assay, S1P1; assay type: biochemical
Experimental: Method A: Receptor [35S] GTPγS Binding Assays
Compounds were loaded in a 384 FALCON® v-bottom plate (0.5 μl/well in a 3-fold dilution). Membranes prepared from S1P1/CHO cells or EDG3-Gal5-bla HEK293T cells were added to the compound plate (40 μl/well, final protein 3 μg/well) with MULTIDROP®. [^35S]GTP (1250 Ci/mmol, Perkin Elmer) was diluted in assay buffer: 20 mM HEPES, pH7.5, 10 mM MgCl2, 150 mM NaCl, 1 mM EGTA, 1 mM DTT, 10 μM GDP, 0.1% fatty acid free BSA, and 10 μg/ml Saponin to 0.4 nM. 40 μl of the [^35S] GTP solution was added to the compound plate with a final concentration of 0.2 nM. The reaction was kept at room temperature for 45 min. At the end of incubation, all the mixtures in the compound plate were transferred to a 384 well FB filter plates via GPCR robot system. The filter plate was washed with water 4 times by using the modified manifold Embla plate washer and dried at 60° C. for 45 min. 30 μA of MicroScint 20 scintillation fluid was added to each well for counting at Packard TOPCOUNT®. EC50 is defined as the agonist concentration that corresponds to 50% of the Ymax (maximal response) obtained for each individual compound tested.
Compounds of the present invention and Comparative Compound A were tested in the Receptor [^35S] GTPγS Binding Assays (Method A) and Receptor [^35S] In some instances, the value is an average of multiple experiments where N is the number of experiments conducted that provided satisfactory dose response curves. When more than one batch of an example was tested, the value presented is from a batch which allowed a comparison of GTPγS S1P1 and GTPγS S1P3 in which the most number of experiments were performed. Preferably, the same batch was examined in Method A and Method B. Data was not averaged across different batches of an example compound.

[3] = tested on: Lewis rats; assay: Rat Adjuvant Induced Arthritis Assay (AA); assay type: in vivo; settings: for Paw Swelling (mL) on Day 20, Mean: vehicle mean 2.11
Experimental: Rat Adjuvant Induced Arthritis Assay (AA)
Male Lewis rats (150-175 g; Harlan, n=8 treatment group) were immunized at the base of the tail with 100 μl of 10 mg/ml freshly ground Mycobacterium butyricum (Difco Laboratories) in incomplete Freund's adjuvant (sigma). Animals were dosed once daily with the test article (as a solution or suspension in the vehicle) or vehicle alone (polyethylene glycol 300, “PEG300”) starting from the day of immunization. The volumes of their hind paws were measured in a water displacement plethysmometer (Ugo Basile, Italy). The baseline paw measurements were taken before onset of the disease (between day 7 to day 10). The paw measurements were then taken three times a week until the end of the study on day 20 to 21. All procedures involving animals were reviewed and approved by the Institutional Animal Care Use Committee.
Compounds of the present invention were tested in the Rat Adjuvant Induced Arthritis assay described hereinabove and the results are shown in Table F and Table G.

T1 sequence (P21453 whole entry): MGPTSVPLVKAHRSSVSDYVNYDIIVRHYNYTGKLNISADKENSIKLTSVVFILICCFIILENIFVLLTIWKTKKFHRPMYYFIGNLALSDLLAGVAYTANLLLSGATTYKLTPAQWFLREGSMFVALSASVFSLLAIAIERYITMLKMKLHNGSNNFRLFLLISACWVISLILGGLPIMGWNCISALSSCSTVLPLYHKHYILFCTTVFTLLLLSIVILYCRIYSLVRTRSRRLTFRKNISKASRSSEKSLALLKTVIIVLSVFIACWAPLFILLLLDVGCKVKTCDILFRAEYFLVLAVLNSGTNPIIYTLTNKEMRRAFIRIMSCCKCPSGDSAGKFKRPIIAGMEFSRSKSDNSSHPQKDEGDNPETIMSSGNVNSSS

O=C(O)C1CN(Cc2ccc(-c3noc(-c4cnn(-c5ccccn5)c4C(F)(F)F)n3)cc2)C1 [Example 1, 1-(4-(5-(1-(Pyridin-2-yl)-5-(trifluoromethyl)-1H-pyrazol-4-yl)-1,2,4-oxadiazol-3-yl)benzyl)azetidine-3-carboxylic acid]
pIC50 [1]: 9.40 | pEC50 ([2]; Method A, S1P1/CHO cell membranes): 8.54 | GTPγS S1P3/S1P1 (Method A) ([2]; ratio of S1P3 EC50 to S1P1 EC50, Method A): 2,300 | Paw Swelling (mL) on Day 20, Mean ([3]; 1.0 mg/kg once daily): 2.36 mL | Paw Swelling (mL) on Day 20, Mean ([3]; 3.0 mg/kg once daily): 1.45 mL | Paw Swelling (mL) on Day 20, Mean ([3]; 6.0 mg/kg once daily): 0.17 mL | Paw Swelling (mL) on Day 20, Mean ([3]; 10.0 mg/kg once daily): 0.12 mL | disease progression as measured by paw swelling ([3]; Lewis rat, prophylactic oral dosing): inhibit disease progression
